According to ChEMBL document CHEMBL1131575, “[125I/127I/131I]Iodorhodamine: synthesis, cellular localization, and biodistribution in athymic mice bearing human tumor xenografts and comparison with [99mTc]hexakis(2-methoxyisobutylisonitrile)” (J Med Chem, 1998):

How the values were obtained:
Mus musculus [1] = experiment: Biodistribution in athymic mice bearing Human Tumor (LS174T) Xenografts 1 hour after injection in Blood (B); type: ADME, organism-based; conditions: in vivo
Mus musculus [2] = experiment: Biodistribution in athymic mice bearing Human Tumor (KB) Xenografts 1 hour after injection in Blood (B); type: ADME, organism-based; conditions: in vivo
Mus musculus [3] = experiment: Ratio of biodistributions in Athymic mice bearing human Tumor (LS174T) xenografts in Tumor (T) and Muscle (M); type: ADME, organism-based; conditions: in vivo
Homo sapiens [4] = experiment: Biodistribution in athymic mice bearing Human Tumor (TE671) Xenografts 1 hour after injection in Tumor (T) cells; type: ADME, organism-based; conditions: in vivo
Mus musculus [5] = experiment: Biodistribution in athymic mice bearing Human Tumor (TE671) Xenografts 1 hour after injection in Heart (H); type: ADME, organism-based; conditions: in vivo
Mus musculus [6] = experiment: Ratio of biodistributions in Athymic mice bearing human Tumor (KB) xenografts in Tumor (T) and Muscle (M); type: ADME, organism-based; conditions: in vivo
[7] = (§1) Ratio of biodistributions in Athymic mice bearing human Tumor (TE671) xenografts in Heart (H) and Blood (B); type: ADME, organism-based; conditions: mouse, read-out: Biodistribution ratio
Mus musculus [8] = experiment: Biodistribution in athymic mice bearing Human Tumor (LS174T) Xenografts 1 hour after injection in Tumor (T) cells; type: ADME, organism-based; conditions: in vivo
Mus musculus [9] = experiment: Biodistribution in athymic mice bearing Human Tumor (LS174T) Xenografts 1 hour after injection in Heart (H); type: ADME, organism-based; conditions: in vivo
Mus musculus [10] = experiment: Biodistribution in athymic mice bearing Human Tumor (KB) Xenografts 1 hour after injection in Lung (L); type: ADME, organism-based; conditions: in vivo
Mus musculus [11] = experiment: Ratio of biodistributions in Athymic mice bearing human Tumor (TE671) xenografts in Heart (H) and Lung (L); type: ADME, organism-based; conditions: in vivo
Mus musculus [12] = experiment: Biodistribution in athymic mice bearing Human Tumor (LS174T) Xenografts 1 hour after injection in Lung (L); type: ADME, organism-based; conditions: in vivo
Mus musculus [13] = experiment: Biodistribution in athymic mice bearing Human Tumor (TE671) Xenografts 1 hour after injection in Muscle (M); type: ADME, organism-based; conditions: in vivo
Mus musculus [14] = experiment: Biodistribution in athymic mice bearing Human Tumor (TE671) Xenografts 1 hour after injection in Blood (B); type: ADME, organism-based; conditions: in vivo
Mus musculus [15] = experiment: Biodistribution in athymic mice bearing Human Tumor (LS174T) Xenografts 1 hour after injection in Muscle (M); type: ADME, organism-based; conditions: in vivo
[16] = (§2) Ratio of biodistributions in Athymic mice bearing human Tumor (TE671) xenografts in Tumor (T) and blood (B); type: ADME, organism-based; conditions: mouse, read-out: Biodistribution ratio
[17] = (§3) Ratio of biodistributions in Athymic mice bearing human Tumor (LS174T) xenografts in Heart (H) and Blood (B); type: ADME, organism-based; conditions: mouse, read-out: Biodistribution ratio
[18] = (§4) Ratio of biodistributions in Athymic mice bearing human Tumor (KB) xenografts in Heart (H) and Blood (B); type: ADME, organism-based; conditions: mouse, read-out: Biodistribution ratio
[19] = (§5) Ratio of biodistributions in Athymic mice bearing human Tumor (KB) xenografts in Tumor (T) and blood (B); type: ADME, organism-based; conditions: mouse, read-out: Biodistribution ratio
Mus musculus [20] = experiment: Biodistribution in athymic mice bearing Human Tumor (KB) Xenografts 1 hour after injection in Muscle (M); type: ADME, organism-based; conditions: in vivo
Mus musculus [21] = experiment: Biodistribution in athymic mice bearing Human Tumor (TE671) Xenografts 1 hour after injection in Lung (L); type: ADME, organism-based; conditions: in vivo
Mus musculus [22] = experiment: Ratio of biodistributions in Athymic mice bearing human Tumor (LS174T) xenografts in Heart (H) and Lung (L); type: ADME, organism-based; conditions: in vivo
Mus musculus [23] = experiment: Ratio of biodistributions in Athymic mice bearing human Tumor (KB) xenografts in Heart (H) and Lung (L); type: ADME, organism-based; conditions: in vivo
[24] = (§6) Ratio of biodistributions in Athymic mice bearing human Tumor (LS174T) xenografts in Tumor (T) and blood (B); type: ADME, organism-based; conditions: mouse, read-out: Biodistribution ratio
Homo sapiens [25] = experiment: Biodistribution in athymic mice bearing Human Tumor (KB) Xenografts 1 hour after injection in Tumor (T) cells; type: ADME, organism-based; conditions: in vivo
Mus musculus [26] = experiment: Biodistribution in athymic mice bearing Human Tumor (KB) Xenografts 1 hour after injection in Heart (H); type: ADME, organism-based; conditions: in vivo
Mus musculus [27] = experiment: Ratio of biodistributions in Athymic mice bearing human Tumor (TE671) xenografts in Tumor (T) and Muscle (M); type: ADME, organism-based; conditions: in vivo
Mus musculus [28] = experiment: as §1; type: ADME, organism-based
Mus musculus [29] = experiment: as §2; type: ADME, organism-based, Blood/Heart
Mus musculus [30] = experiment: as §6; type: ADME, organism-based, Blood/Heart
Mus musculus [31] = experiment: as §3; type: ADME, organism-based
Mus musculus [32] = experiment: as §4; type: ADME, organism-based
Mus musculus [33] = experiment: as §5; type: ADME, organism-based

COC(=O)c1ccccc1-c1c2ccc(=N)cc-2oc2cc(N)ccc12.[125IH]
Dose/g (Mus musculus [1]): 1.74% | Dose/g (Mus musculus [2]): 4.6% | Biodistribution ratio (Mus musculus [3]): 1.6 | Dose/g (Homo sapiens [4]): 1.1% | Dose/g (Mus musculus [5]): 0.6% | Biodistribution ratio (Mus musculus [6]): 1.2 | Kp [7]: 0.5 | Dose/g (Mus musculus [8]): 0.59% | Dose/g (Mus musculus [9]): 0.6% | Dose/g (Mus musculus [10]): 3.23% | Biodistribution ratio (Mus musculus [11]): 0.7 | Dose/g (Mus musculus [12]): 0.91% | Dose/g (Mus musculus [13]): 0.36% | Dose/g (Mus musculus [14]): 1.74% | Dose/g (Mus musculus [15]): 0.36% | Kp [16]: 0.63 | Kp [17]: 0.5 | Kp [18]: 0.6 | Kp [19]: 0.36 | Dose/g (Mus musculus [20]): 1.44% | Dose/g (Mus musculus [21]): 0.91% | Biodistribution ratio (Mus musculus [22]): 0.7 | Biodistribution ratio (Mus musculus [23]): 0.8 | Kp [24]: 0.34 | Dose/g (Homo sapiens [25]): 1.67% | Dose/g (Mus musculus [26]): 2.56% | Biodistribution ratio (Mus musculus [27]): 3.1

Hexakis-(2-methoxyisobutylisonitrile)Technetium (99mTc-MIBI)
Dose/g (Mus musculus [1]): 0.13% | Dose/g (Mus musculus [2]): 0.17% | Biodistribution ratio (Mus musculus [3]): 0.43 | Dose/g (Homo sapiens [4]): 1.1% | Dose/g (Mus musculus [5]): 6% | Biodistribution ratio (Mus musculus [6]): 0.24 | Biodistribution ratio (Mus musculus [28]): 46 | Biodistribution ratio (Mus musculus [29]): 8.5 | Dose/g (Mus musculus [8]): 0.52% | Dose/g (Mus musculus [9]): 6% | Dose/g (Mus musculus [10]): 1.82% | Biodistribution ratio (Mus musculus [11]): 12 | Dose/g (Mus musculus [12]): 0.5% | Dose/g (Mus musculus [13]): 1.22% | Dose/g (Mus musculus [14]): 0.13% | Dose/g (Mus musculus [15]): 1.22% | Biodistribution ratio (Mus musculus [30]): 4 | Biodistribution ratio (Mus musculus [31]): 46 | Biodistribution ratio (Mus musculus [32]): 48 | Biodistribution ratio (Mus musculus [33]): 3.8 | Dose/g (Mus musculus [20]): 2.74% | Dose/g (Mus musculus [21]): 0.5% | Biodistribution ratio (Mus musculus [22]): 12 | Biodistribution ratio (Mus musculus [23]): 4.5 | Dose/g (Homo sapiens [25]): 0.65% | Dose/g (Mus musculus [26]): 8.13% | Biodistribution ratio (Mus musculus [27]): 0.9
